Read-outs that look alike come from different tables or passages of the source.
Legend:
Type in all cases: cell-based
K562 cells = test: modified MTT method, proliferation of K562 cells; conditions: Homo sapiens, read-out: IC50 on the growth of K562 cells
Experimental: (§1) Five test concentrations 2, 10, 50, 250 and 500 µM were set for each of five derivatives of artemisinin, artemether drug substance, artemisinin, dihydroartemisinin, artesunate were dissolved with dimethyl sulfoxide (DMSO), while the lyophilized powder of artemether was dissolved with normal saline (N.S.), followed by addition of a certain amount of RPMI 1640 complete culture solution to formulate a high-concentration solution, and each of the low-concentration solutions was formulated by proportionate dilution from the high-concentration solution.
(§2) The concentrations of DMSO contained in the solutions at the two relatively high concentrations 500 and 250 µM for the artemether drug substance, artemisinin, dihydroartemisinin, artesunate, used as solvent controls, were formulated with […] culture solution, at which time the test concentrations of DMSO were 1% and 0.5%. The concentrations of the excipients contained in the solutions at the two relatively high concentrations 500 and 250 µM for the preparation of lyophilized powder of artemether were used as solvent controls.
(§3) The positive control was an anti-cancer drug adriamycin (ADM), which was set at three test concentrations (final concentrations) of 0.1, 1 and 10 µg/ml. To ADM stock solution (1 mg/ml) a certain amount of PRMI 1640 complete culture solution was added, to formulate a high-concentration solution, and each of the low-concentration solutions were formulated by proportionate dilutions from the high-concentration solution.
(§4) HL-60: (human promyelocytic leukemia cell line); K562 (human chronic myelocytic leukemia cell line); HT-29 (human colon cancer cell line); PC-3 (human prostate cancer cell line); A549 (human non-small cell lung cancer cell line); MKN-28 (human gastric cancer cell line); Hep2 (human laryngeal cancer cell line), all of which were purchased from Cell Bank of Shanghai Institutes for Biological Sciences, the Chinese Academy of Sciences.
(§5) Influence of the five test samples on the proliferation of 7 human tumor cell lines was determined via a modified MTT method.
(§6) Cells in logarithmic growth phase were taken, adjusted to a certain concentration and then added into a 96 well culture plate. After culture of adherent cells for a period until adherence, the test samples were added; and for suspension cells, the test samples were added after inoculation. 5 test concentrations 2, 10, 50, 250 and 500 µM were set, with 3 parallel wells for each concentration, 10 µl/well; the solvent controls were 0.5% and 1% of isovolumetric DMSO, and the positive controls was ADM at 3 concentrations 0.1, 1 and 10 µg/ml. The samples were loaded followed by culture for a period of time in an incubator at 37°C, 5% CO2, followed by addition of MTT (5 mg/ml) at 20 µl/well, and continued to be cultured for a period of time and added with a three-combined solution [10% SDS - 5% isobutanol - 0.012 mol/L HCl (W/V/V)]. After dissolving in uniformity, it was continued to be placed in the incubator at 37°C, 5% CO2 for a period of time, and the OD value of each well was determined under a wavelength of 570 nm with a microplate reader, according to which the results were calculated.
(§7) The cellular proliferation inhibition rate was calculated in accordance with the following equation: Inhibition rate (%) = (OD valuecontrol well-OD valuesample well)/OD valuecontrol well × 100% [formula]
(§8) When the inhibition rate of DMSO on cells was more than 15%, calculation was carried out using the following equation: Inhibition rate (%) = (OD valuesolvent group-OD valueadministered well)/OD valuesolvent group × 100% [formula]
(§9) The inhibition rate was calculated by using Microsoft Excel 2003, and median inhibitory concentration IC50 was calculated with a LOGIT method, which was used as an indicator for judging the inhibitory capability.

HL-60 cells = test: modified MTT method, proliferation of HL-60 cells; conditions: Homo sapiens, read-out: IC50 on the growth of HL-60 cells
Experimental: as §1, §2, §3, §4, §5, §6, §7, §8, §9

A549 cells = test: modified MTT method, proliferation of A549 cells; conditions: Homo sapiens, read-out: IC50 on the growth of A549 cells
Experimental: as §1, §2, §3, §4, §5, §6, §7, §8, §9

HT-29 cells = test: modified MTT method, proliferation of HT-29 cells; conditions: Homo sapiens
Experimental: as §1, §2, §3, §4, §5, §6, §7, §8, §9
(§10) According to the results of preliminary screening, further experiments were adjusted such that more sensitive cell lines were screened out. […]

PC-3 cells = test: modified MTT method, proliferation of PC-3 cells; conditions: Homo sapiens, read-out: IC50 on the growth of PC-3 cells
Experimental: as §1, §2, §3, §4, §5, §6, §7, §8, §9

MKN-28 cells = test: modified MTT method, proliferation of MKN-28 cells; conditions: Homo sapiens, MKN-28, 72 h, secondary screening
Experimental: as §1, §2, §3, §4, §5, §6, §7, §8, §9, §10

Hep2 cells = test: modified MTT method, proliferation of Hep2 cells; conditions: Homo sapiens, HEp-2, 72 h, secondary screening
Experimental: as §1, §2, §3, §4, §5, §6, §7, §8, §9, §10

IC50 (K562 cells; K562, 24 h, Batch 1, 24 h): 7090 nM
IC50 (K562 cells; K562, 24 h, Batch 2, 24 h): 5760 nM
IC50 (K562 cells; K562, 24 h, Batch 3, 24 h): 2590 nM
IC50 (K562 cells; K562, 48 h, Batch 1, 48 h): 1900 nM
IC50 (K562 cells; K562, 48 h, Batch 2, 48 h): 240 nM
IC50 (K562 cells; K562, 48 h, Batch 3, 48 h): 1690 nM
IC50 (K562 cells; K562, 72 h, Batch 1, 72 h): 170 nM
IC50 (K562 cells; K562, 72 h, Batch 2, 72 h): 9.93 nM
IC50 (K562 cells; K562, 72 h, Batch 3, 72 h): 740 nM
IC50 (HL-60 cells; HL-60, 24 h, Batch 1, 24 h): 9240 nM
IC50 (HL-60 cells; HL-60, 24 h, Batch 2, 24 h): 4190 nM
IC50 (HL-60 cells; HL-60, 48 h, Batch 1, 48 h): 1720 nM
IC50 (HL-60 cells; HL-60, 48 h, Batch 2, 48 h): 160 nM
IC50 (HL-60 cells; HL-60, 72 h, Batch 1, 72 h): 780 nM
IC50 (HL-60 cells; HL-60, 72 h, Batch 2, 72 h): 570 nM
IC50 (A549 cells; A549, 24 h, Batch 1, 24 h): 38800 nM
IC50 (A549 cells; A549, 24 h, Batch 2, 24 h): > 100000 nM
IC50 (A549 cells; A549, 48 h, Batch 1, 48 h): 10700 nM
IC50 (A549 cells; A549, 48 h, Batch 2, 48 h): 620 nM
IC50 (A549 cells; A549, 72 h, Batch 1, 72 h): 760 nM
IC50 (A549 cells; A549, 72 h, Batch 2, 72 h): 190 nM
IC50 (HT-29 cells; HT-29, 24 h, preliminary screening, Batch 1, 24 h, read-out: IC50 on the growth of HT-29 cells): 2280 nM
IC50 (HT-29 cells; HT-29, 24 h, preliminary screening, Batch 2, 24 h, read-out: IC50 on the growth of HT-29 cells): 3810 nM
IC50 (HT-29 cells; HT-29, 48 h, preliminary screening, Batch 1, 48 h, read-out: IC50 on the growth of HT-29 cells): 280 nM
IC50 (HT-29 cells; HT-29, 48 h, preliminary screening, Batch 2, 48 h, read-out: IC50 on the growth of HT-29 cells): 590 nM
IC50 (HT-29 cells; HT-29, 72 h, preliminary screening, Batch 1, 72 h, read-out: IC50 on the growth of HT-29 cells): 57 nM
IC50 (HT-29 cells; HT-29, 72 h, preliminary screening, Batch 2, 72 h, read-out: IC50 on the growth of HT-29 cells): 110 nM
IC50 (HT-29 cells; HT-29, 72 h, secondary screening, 72 h, Batch 1, read-out: IC50 on the growth of HT-29 cells (72 h)): 110 nM
IC50 (HT-29 cells; HT-29, 72 h, secondary screening, 72 h, Batch 2, read-out: IC50 on the growth of HT-29 cells (72 h)): 190 nM
IC50 (HT-29 cells; HT-29, 72 h, secondary screening, 72 h, Batch 3, read-out: IC50 on the growth of HT-29 cells (72 h)): 120 nM
IC50 (HT-29 cells; HT-29, 72 h, secondary screening, 72 h, average, read-out: IC50 on the growth of HT-29 cells (72 h)): 110 nM
IC50 (PC-3 cells; PC-3, 24 h, Batch 1, 24 h): 33000 nM
IC50 (PC-3 cells; PC-3, 24 h, Batch 2, 24 h): 47800 nM
IC50 (PC-3 cells; PC-3, 48 h, Batch 1, 48 h): 7600 nM
IC50 (PC-3 cells; PC-3, 48 h, Batch 2, 48 h): 9620 nM
IC50 (PC-3 cells; PC-3, 72 h, Batch 1, 72 h): 3160 nM
IC50 (PC-3 cells; PC-3, 72 h, Batch 2, 72 h): 3740 nM
IC50 (MKN-28 cells; Average, read-out: IC50 on the growth of MKN-28 cells (72 h)): 510 nM
IC50 (MKN-28 cells; Batch 1, read-out: IC50 on the growth of MKN-28 cells (72 h)): 520 nM
IC50 (MKN-28 cells; Batch 2, read-out: IC50 on the growth of MKN-28 cells (72 h)): 530 nM
IC50 (MKN-28 cells; Batch 3, read-out: IC50 on the growth of MKN-28 cells (72 h)): 470 nM
SMILES: COc1cccc2c1C(=O)c1c(O)c3c(c(O)c1C2=O)C[C@@](O)(C(=O)CO)C[C@@H]3O[C@H]1C[C@H](N)[C@H](O)[C@H](C)O1 [ADM, adriamycin]
IC50 (Hep2 cells; Batch 1, read-out: IC50 on the growth of Hep2 cells (72 h)): 410 nM
IC50 (Hep2 cells; Batch 2, read-out: IC50 on the growth of Hep2 cells (72 h)): 260 nM
IC50 (Hep2 cells; Batch 3, read-out: IC50 on the growth of Hep2 cells (72 h)): 1000 nM
IC50 (Hep2 cells; average, read-out: IC50 on the growth of Hep2 cells (72 h)): 510 nM

Reference: patent publication EP2926811A1, “ARTEMETHER-CONTAINING PHARMACEUTICAL COMPOSITION, PREPARATION, AND USE THEREOF” (Kunming Pharmaceutical Corp., priority 2012, dated 2014)
